Data as given in patent publication US8476253B2, “Amide derivative” (Daiichi Sankyo Company, Limited, priority 2009, dated 2013).
Structures can show the parent of a compound that is named as a salt.

How the values were obtained:
neurokinin NK1 receptor = biological target: T1, neurokinin NK1 receptor (Cavia porcellus, UniProt P30547); experiment: Effect of suppressing substance P-induced airway contraction (in vivo, intratracheal administration); set-up: species or system guinea pig; conditions: guinea pigs, intratracheal administration 60 minutes before 20 μg/kg i.v. SP, AUC of increase in airway pressure over 10 minutes; for ED50: guinea pig, read-out: ID50 (the source's name)
T1 construct: Using healthy guinea pigs (body weight, 350 to 550 g; Hartley male guinea pigs); from tissue; host or cells: live anaesthetised Hartley male guinea pigs (airway, in vivo)
T1 sequence (P30547 whole entry): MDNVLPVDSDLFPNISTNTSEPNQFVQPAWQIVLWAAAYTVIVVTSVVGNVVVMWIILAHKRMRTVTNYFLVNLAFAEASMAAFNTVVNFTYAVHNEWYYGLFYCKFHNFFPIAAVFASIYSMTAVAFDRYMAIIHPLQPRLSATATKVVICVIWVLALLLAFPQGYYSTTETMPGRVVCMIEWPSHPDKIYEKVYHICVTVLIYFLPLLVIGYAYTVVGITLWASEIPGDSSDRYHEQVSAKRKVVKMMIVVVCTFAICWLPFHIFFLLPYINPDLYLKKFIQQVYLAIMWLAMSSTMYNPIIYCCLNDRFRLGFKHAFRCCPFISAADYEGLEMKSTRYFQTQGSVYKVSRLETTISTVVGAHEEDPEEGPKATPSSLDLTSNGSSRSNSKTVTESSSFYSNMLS
Protocol: (§1) Using healthy guinea pigs (body weight, 350 to 550 g; Hartley male guinea pigs), the effect of suppressing airway contraction induced by substance P (SP), which is an NK1 receptor agonist, was examined by a modified method of Konzett-Roessler (Naunyn-Schmiedebergs Arch. Exp. Pathol. Pharmakol. 195, 71 [1940]) using airway pressure as an indicator.
(§2) A tracheal cannula and a venous cannula were attached to a guinea pig anesthetized with pentobarbital (50 mg/mL solution, 0.40 to 0.50 mL/body, subcutaneous administration). An arterial cannula filled with heparin-containing physiological saline (100 U/mL) was further attached, and blood pressure and heart rate were monitored via an amplifier and an instantaneous heart rate meter. Subsequently, gallamine (20 mg/body, intravenous administration) was administered to terminate spontaneous breathing, and then 10 mL/kg of positive pressure breathing (Ugo-Basile Biological Research Apparatus, Cat. No. 7025) was rapidly performed at 60 times/min. The airway pressure during artificial breathing was detected with a pressure transducer (TP-200T or TP-400T; Nihon Kohden Corporation) attached to a side branch of the tracheal cannula, amplified (AP-601G; Nihon Kohden Corporation), and recorded in a recorder. After the airway pressure, blood pressure, and heart rate were stabilized, 20 μg/kg of SP was intravenously administered from the venous cannula to induce airway contraction, and the airway pressure was measured for the following 10 minutes.
The test substance was dissolved in a 5% glucose solution, a 0.5 mL/kg solution was intratracheally administered with an intratracheal administration apparatus (model 1A-1B; Penn-Century, Inc.) 60 minutes before stimulation with SP.
(§3) The AUC of increase in the airway pressure over 10 minutes after administration of SP was determined as the intensity of SP-induced airway contraction and calculated as an ID50 value from the inhibition rate based on the value of the control group (5% glucose solution intratracheal administration group).

substance P receptor = biological target: T2, substance P receptor (Cavia porcellus, UniProt P30547); experiment: Test for binding to guinea-pig substance P receptor (crude lung membrane sample); conditions: crude guinea-pig lung membrane sample, [3H]substance P; Ki from IC50 and Kd; read-out: Ki
T2 construct: A preparation of a crude lung membrane sample was prepared; from tissue; host or cells: guinea-pig lung (crude membrane sample)
T2 sequence (P30547 whole entry): as above
Protocol: A preparation of a crude lung membrane sample was prepared, and a test for binding of a test substance to the sample was performed according to the method described in EP0336230A2.
The binding effect of the test substance to a substance P receptor was calculated as an affinity (Ki) of the test substance for the substance P receptor from a 50% binding concentration (IC50) and an affinity (Kd) of [^3H]substance P for the substance P receptor.

muscarine M3 receptor = experiment: Effect of suppressing methacholine-induced airway contraction (in vivo, intratracheal administration); set-up: species or system guinea pig; conditions: guinea pigs, intratracheal administration 60 minutes before 30 μg/kg i.v. methacholine, AUC of increase in airway pressure over 10 minutes
Protocol: as §1, with “methacholine,” for “substance P (SP),”, “a muscarine” for “an NK1”
as §2, with “mg/mL of” for “mg/mL”, “stabilized, 30” for “stabilized, 20”, “of methacholine” for “of SP”
A test substance was dissolved in 5% glucose solution, and a 0.5 mL/kg solution was administered intratracheally with an intratracheal administration apparatus (model 1A-1B; Penn-Century, Inc.) 60 minutes before stimulation with methacholine.
as §3, with “methacholine” for “SP”, “measured” for “determined”, “methacholine-induced” for “SP-induced”, “(a 5%” for “(5%”

Molecule `CN(CCN1CCC(OC(=O)Nc2ccccc2-c2ccccc2)CC1)C(=O)CCCCCNCc1ccc(C(=O)N(C)CCCN(C)C(=O)CO[C@H]2Cc3ccccc3C23CCN(CC[C@@]2(c4ccc(F)cc4)CN(C(=O)c4cc(C(F)(F)F)cc(C(F)(F)F)c4)CO2)CC3)s1` [Example 1, 1-{2-[{6-[({5-[{3-[({[(2S)-1′-{2-[(5R)-3-[3,5-Bis(trifluoromethyl)benzoyl]-5-(4-fluorophenyl)-1,3-oxazolidin-5-yl]ethyl}-2,3-dihydrospiro[indene-1,4′-piperidin]-2-yl]oxy}acetyl)(methyl)amino]propyl}(methyl)carbamoyl]-2-thienyl}methyl)amino]hexanoyl}(methyl)amino]ethyl}piperidin-4-yl biphenyl-2-ylcarbamate] has an ED50 (neurokinin NK1 receptor) of 0.0147 mg/kg, a Ki (substance P receptor) of 1.5 nM and an ID50 (muscarine M3 receptor) of 0.0177 mg/kg.
With `CN(CCN1CCC(OC(=O)Nc2ccccc2-c2ccccc2)CC1)C(=O)CCCCCNc1ccc(C(=O)N(C)CCCN(C)C(=O)CO[C@H]2Cc3ccccc3C23CCN(CC[C@@]2(c4ccc(F)cc4)CN(C(=O)c4cc(C(F)(F)F)cc(C(F)(F)F)c4)CO2)CC3)nc1` [Example 9, 1-(2-{[6-({6-[{3-[({[(2S)-1′-{2-[(5R)-3-[3,5-Bis(trifluoromethyl)benzoyl]-5-(4-fluorophenyl)-1,3-oxazolidin-5-yl]ethyl}-2,3-dihydrospiro[indene-1,4′-piperidin]-2-yl]oxy}acetyl)(methyl)amino]propyl}(methyl)carbamoyl]pyridin-3-yl}amino)hexanoyl](methyl)amino}ethyl)piperidin-4-yl biphenyl-2-ylcarbamate] the ED50 (neurokinin NK1 receptor) was 0.0348 mg/kg, the Ki (substance P receptor) was 2.1 nM and the ID50 (muscarine M3 receptor) was 0.0164 mg/kg.
Molecule `CN(CCN1CCC(OC(=O)Nc2ccccc2-c2ccccc2)CC1)C(=O)CCCCCNc1ncc(C(=O)N(C)CCCN(C)C(=O)CO[C@H]2Cc3ccccc3C23CCN(CC[C@@]2(c4ccc(F)cc4)CN(C(=O)c4cc(C(F)(F)F)cc(C(F)(F)F)c4)CO2)CC3)cn1` [Example 14, 1-(2-{[6-({5-[{3-[({[(2S)-1′-{2-[(5R)-3-[3,5-Bis(trifluoromethyl)benzoyl]-5-(4-fluorophenyl)-1,3-oxazolidin-5-yl]ethyl}-2,3-dihydrospiro[indene-1,4′-piperidin]-2-yl]oxy}acetyl)(methyl)amino]propyl}(methyl)carbamoyl]pyrimidin-2-yl}amino)hexanoyl](methyl)amino}ethyl)piperidin-4-yl biphenyl-2-ylcarbamate trihydrochloride] has an ED50 (neurokinin NK1 receptor) of 0.0172 mg/kg, a Ki (substance P receptor) of 1.9 nM and an ID50 (muscarine M3 receptor) of 0.0129 mg/kg.
For `CN(CCN1CCC(OC(=O)Nc2ccccc2-c2ccccc2)CC1)C(=O)CCCCCNc1ccc(C(=O)N(C)CCN(C)C(=O)CO[C@H]2Cc3ccccc3C23CCN(CC[C@@]2(c4ccc(F)cc4)CN(C(=O)c4cc(C(F)(F)F)cc(C(F)(F)F)c4)CO2)CC3)cc1` [Example 15, 1-(2-{[6-({4-[{2-[({[(2S)-1-{2-[(5R)-3-[3,5-Bis(trifluoromethyl)benzoyl]-5-(4-fluorophenyl)-1,3-oxazolidin-5-yl]ethyl}-2,3-dihydrospiro[indene-1,4′-piperidin]-2-yl]oxy}acetyl)(methyl)amino]ethyl}(methyl)carbamoyl]phenyl}amino)hexanoyl](methyl)amino}ethyl)piperidin-4-yl biphenyl-2-ylcarbamate], the ID50 (neurokinin NK1 receptor) was 0.0224 mg/kg, the Ki (substance P receptor) was 1.5 nM and the ID50 (muscarine M3 receptor) was 0.0375 mg/kg.
Work on `CN(CCN1CCC(OC(=O)Nc2ccccc2-c2ccccc2)CC1)C(=O)CCCCCNc1ccc(C(=O)N(C)CCN(C)C(=O)CO[C@H]2Cc3ccccc3C23CCN(CC[C@@]2(c4ccc(F)cc4)CN(C(=O)c4cc(C(F)(F)F)cc(C(F)(F)F)c4)CO2)CC3)cc1` [Example 16, 1-(2-{[6-({4-[{2-[({[(2S)-1′-{2-[(5R)-3-[3,5-Bis(trifluoromethyl)benzoyl]-5-(4-fluorophenyl)-1,3-oxazolidin-5-yl]ethyl}-2,3-dihydrospiro[indene-1,4′-piperidin]-2-yl]oxy}acetyl)(methyl)amino]ethyl}(methyl)carbamoyl]phenyl}amino)hexanoyl](methyl)amino}ethyl)piperidin-4-yl biphenyl-2-ylcarbamate trihydrochloride] yielded an ED50 (neurokinin NK1 receptor) of 0.016 mg/kg, a Ki (substance P receptor) of 2.5 nM and an ID50 (muscarine M3 receptor; trihydrochloride) of 0.0191 mg/kg.
`Cc1cc(NCCCCCC(=O)N(C)CCN2CCC(OC(=O)Nc3ccccc3-c3ccccc3)CC2)ccc1C(=O)N(C)CCCN(C)C(=O)CO[C@H]1Cc2ccccc2C12CCN(CC[C@@]1(c3ccc(F)cc3)CN(C(=O)c3cc(C(F)(F)F)cc(C(F)(F)F)c3)CO1)CC2` [Example 18, 1-(2-{[6-({4-[{3-[({[(2S)-1′-{2-[(5R)-3-[3,5-Bis(trifluoromethyl)benzoyl]-5-(4-fluorophenyl)-1,3-oxazolidin-5-yl]ethyl}-2,3-dihydrospiro[indene-1,4′-piperidin]-2-yl]oxy}acetyl)(methyl)amino]propyl}(methyl)carbamoyl]-3-methylphenyl}amino)hexanoyl](methyl)amino}ethyl)piperidin-4-yl biphenyl-2-ylcarbamate trihydrochloride] showed an ED50 (neurokinin NK1 receptor) of 0.0614 mg/kg, a Ki (substance P receptor) of 1.8 nM and an ID50 (muscarine M3 receptor) of 0.0389 mg/kg.
`CN(CCN1CCC(OC(=O)Nc2ccccc2-c2ccccc2)CC1)C(=O)CCCCCNc1ccc(C(=O)N(CCCN(C)C(=O)CO[C@H]2Cc3ccccc3C23CCN(CC[C@@]2(c4ccc(F)cc4)CN(C(=O)c4cc(C(F)(F)F)cc(C(F)(F)F)c4)CO2)CC3)C2CC2)cc1` [Example 25, 1-(2-{[6-({4-[{3-[({[(2S)-1′-{2-[(5R)-3-[3,5-Bis(trifluoromethyl)benzoyl]-5-(4-fluorophenyl)-1,3-oxazolidin-5-yl]ethyl}-2,3-dihydrospiro[indene-1,4′-piperidin]-2-yl]oxy}acetyl)(methyl)amino]propyl}(cyclopropyl)carbamoyl]phenyl}amino)hexanoyl](methyl)amino}ethyl)piperidin-4-yl biphenyl-2-ylcarbamate trihydrochloride] was tested, and the ED50 (neurokinin NK1 receptor) was 0.0437 mg/kg, the Ki (substance P receptor) was 1.7 nM and the ID50 (muscarine M3 receptor) was 0.0459 mg/kg.
`CN(CCN1CCC(OC(=O)Nc2ccccc2-c2ccccc2)CC1)C(=O)COCCCNc1ccc(C(=O)N(C)CCCN(C)C(=O)CO[C@H]2Cc3ccccc3C23CCN(CC[C@@]2(c4ccc(F)cc4)CN(C(=O)c4cc(C(F)(F)F)cc(C(F)(F)F)c4)CO2)CC3)cc1` [Example 27, 1-{2-[{[3-({4-[{3-[({[(2S)-1′-{2-[(5R)-3-[3,5-Bis(trifluoromethyl)benzoyl]-5-(4-fluorophenyl)-1,3-oxazolidin-5-yl]ethyl}-2,3-dihydrospiro[indene-1,4′-piperidin]-2-yl]oxy}acetyl)(methyl)amino]propyl}(methyl)carbamoyl]phenyl}amino)propoxy]acetyl}(methyl)amino]ethyl}piperidin-4-yl biphenyl-2-ylcarbamate trihydrochloride] gave an ED50 (neurokinin NK1 receptor) of 0.0229 mg/kg, a Ki (substance P receptor) of 1.2 nM and an ID50 (muscarine M3 receptor) of 0.0218 mg/kg.
